From ChEMBL document CHEMBL1201862, “PubChem BioAssay data set” (2004)
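Five concentrations, 48 hours, 96-well plates. GI50 = concentration required for 50% inhibition of growth.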 Active and inactive are the calls of the source. Cut-off read from the data, not from the text of the source: active = GI50 up to about 1.1 µM and inactive = higher. Where a SMILES comes first, the peptide text is derived from it. The star is where a group is joined. Boc = CC(C)(C)OC(=O)*; OSu = O=C1CCC(=O)N1O*

Tests used:
Assay in all cases: NCI tumour cell line growth inhibition, 48 h
[1] = test system: 786-0
[2] = test system: A498
[3] = test system: CCRF-CEM
[4] = test system: HT-29
[5] = test system: IGROV-1
[6] = test system: KM12
[7] = test system: LOX IMVI
[8] = test system: M14
[9] = test system: MCF7
[10] = test system: OVCAR-3
[11] = test system: PC-3
[12] = test system: SF-268
[13] = test system: SF-295
[14] = test system: SF-539
[15] = test system: SK-MEL-2
[16] = test system: SN12C
[17] = test system: SNB-75
[18] = test system: T47D
[19] = test system: U-251
[20] = test system: HCC 2998

| Compound | GI50 [1] | GI50 [2] | GI50 [3] | GI50 [4] | GI50 [5] | GI50 [6] | GI50 [7] | GI50 [8] | GI50 [9] | GI50 [10] | GI50 [11] | GI50 [12] | GI50 [13] | GI50 [14] | GI50 [15] | GI50 [16] | GI50 [17] | GI50 [18] | GI50 [19] | GI50 [20] |
| --- | --- | --- | --- | --- | --- | --- | --- | --- | --- | --- | --- | --- | --- | --- | --- | --- | --- | --- | --- | --- |
| Nc1ccc2nc3n(c(=O)c2c1)CCCCC3 | > 100 µM (inactive) | > 100 µM (inactive) | > 100 µM (inactive) | > 100 µM (inactive) | > 100 µM (inactive) | > 100 µM (inactive) | > 100 µM (inactive) | > 100 µM (inactive) | > 100 µM (inactive) | > 100 µM (inactive) | > 100 µM (inactive) | > 100 µM (inactive) | > 100 µM (inactive) | > 100 µM (inactive) | > 100 µM (inactive) | > 100 µM (inactive) | > 100 µM (inactive) | > 100 µM (inactive) | > 100 µM (inactive) | – |
| CCN(CC)CCCC(C)Nc1cc(/C=C/c2ccc(Cl)cc2)nc2cc(N(C)C)ccc12 (stereo not drawn) | 2.92 µM (inactive) | 1.69 µM (inactive) | 1.21 µM (inactive) | 1.34 µM (inactive) | 2 µM (inactive) | 1.7 µM (inactive) | – | 1.61 µM (inactive) | 1.34 µM (inactive) | 1.7 µM (inactive) | 1.41 µM (inactive) | 1.83 µM (inactive) | 1.9 µM (inactive) | 2.15 µM (inactive) | – | 1.8 µM (inactive) | – | 1.66 µM (inactive) | 1.64 µM (inactive) | 2.07 µM (inactive) |
| CC(NC(=O)C(NC(=O)OC(C)(C)C)C(C)C)C(=O)NCC(=O)ON1C(=O)CCC1=O (stereo not drawn) (Boc-Val-Ala-Gly-OSu; configuration not given here) | > 100 µM (inactive) | – | – | > 100 µM (inactive) | > 100 µM (inactive) | > 100 µM (inactive) | – | 88.1 µM (inactive) | > 100 µM (inactive) | > 100 µM (inactive) | > 100 µM (inactive) | > 100 µM (inactive) | > 100 µM (inactive) | > 100 µM (inactive) | > 100 µM (inactive) | > 100 µM (inactive) | > 100 µM (inactive) | > 100 µM (inactive) | > 100 µM (inactive) | > 100 µM (inactive) |
| CSc1ccc(/C=C2\N=C(c3ccccc3)N(c3nc4cc(C)c(C)cc4s3)C2=O)cc1 | 21.9 µM (inactive) | – | 9.35 µM (inactive) | 22.2 µM (inactive) | 15.8 µM (inactive) | 27.4 µM (inactive) | 19.8 µM (inactive) | 26.4 µM (inactive) | 15.3 µM (inactive) | 22.8 µM (inactive) | 22.4 µM (inactive) | 34.8 µM (inactive) | 34.1 µM (inactive) | 21.3 µM (inactive) | 16 µM (inactive) | 27 µM (inactive) | 28.8 µM (inactive) | 44.8 µM (inactive) | 19.2 µM (inactive) | 32.1 µM (inactive) |
| COc1ccc2nc3cc([N+](=O)[O-])ccc3c(Nc3ccc(S(=O)(=O)NC(C)=O)cc3)c2c1 | 47 µM (inactive) | > 100 µM (inactive) | 23.9 µM (inactive) | 65 µM (inactive) | – | – | 93.3 µM (inactive) | > 100 µM (inactive) | 30.8 µM (inactive) | 38.1 µM (inactive) | 45.5 µM (inactive) | > 100 µM (inactive) | > 100 µM (inactive) | > 100 µM (inactive) | > 100 µM (inactive) | > 100 µM (inactive) | – | > 100 µM (inactive) | 44.8 µM (inactive) | 56.6 µM (inactive) |
| Cc1nn(C(=O)c2ccc(Cl)cc2)c2c1C(c1ccccc1[N+](=O)[O-])SC(=N)N2 (stereo not drawn) | > 10 µM (inactive) | – | > 10 µM (inactive) | > 10 µM (inactive) | > 10 µM (inactive) | > 10 µM (inactive) | > 10 µM (inactive) | > 10 µM (inactive) | > 10 µM (inactive) | > 10 µM (inactive) | > 10 µM (inactive) | > 10 µM (inactive) | > 10 µM (inactive) | > 10 µM (inactive) | > 10 µM (inactive) | > 10 µM (inactive) | > 10 µM (inactive) | > 10 µM (inactive) | > 10 µM (inactive) | > 10 µM (inactive) |
| COc1ccc2c(c1)C(N)=C(Cc1ccncc1)C2=O | > 100 µM (inactive) | > 100 µM (inactive) | 75.2 µM (inactive) | > 100 µM (inactive) | 56.9 µM (inactive) | > 100 µM (inactive) | > 100 µM (inactive) | > 100 µM (inactive) | 82.4 µM (inactive) | > 100 µM (inactive) | 91.8 µM (inactive) | > 100 µM (inactive) | > 100 µM (inactive) | > 100 µM (inactive) | > 100 µM (inactive) | 63 µM (inactive) | 28.4 µM (inactive) | 55.2 µM (inactive) | > 100 µM (inactive) | – |
| CCCC(CCC(=O)O)(CCC(=O)O)[N+](=O)[O-] | > 100 µM (inactive) | – | – | > 100 µM (inactive) | > 100 µM (inactive) | > 100 µM (inactive) | – | > 100 µM (inactive) | > 100 µM (inactive) | – | > 100 µM (inactive) | > 100 µM (inactive) | > 100 µM (inactive) | > 100 µM (inactive) | > 100 µM (inactive) | > 100 µM (inactive) | > 100 µM (inactive) | > 100 µM (inactive) | > 100 µM (inactive) | – |
| Clc1ccc(C2=NCON=C2c2ccc(Cl)cc2)cc1 | 19.7 µM (inactive) | – | 24.3 µM (inactive) | 13.6 µM (inactive) | – | 15.5 µM (inactive) | 15.1 µM (inactive) | – | 25.6 µM (inactive) | 15.8 µM (inactive) | 18.2 µM (inactive) | 19.7 µM (inactive) | 16.6 µM (inactive) | 15.3 µM (inactive) | 19.9 µM (inactive) | 19 µM (inactive) | 24.8 µM (inactive) | 0.71 µM (active) | 18.3 µM (inactive) | 15.2 µM (inactive) |
| C=CC(=C)CCC(Br)C(C)(C)Br (stereo not drawn) | 99.1 µM (inactive) | – | 22.2 µM (inactive) | > 100 µM (inactive) | 80.7 µM (inactive) | > 100 µM (inactive) | – | 75.9 µM (inactive) | 35.1 µM (inactive) | > 100 µM (inactive) | > 100 µM (inactive) | > 100 µM (inactive) | > 100 µM (inactive) | > 100 µM (inactive) | > 100 µM (inactive) | > 100 µM (inactive) | > 100 µM (inactive) | 66.2 µM (inactive) | > 100 µM (inactive) | > 100 µM (inactive) |
| COC(=O)C1CCOC(C)N1C(=O)OC(C)(C)C (stereo not drawn) | > 100 µM (inactive) | – | > 100 µM (inactive) | > 100 µM (inactive) | > 100 µM (inactive) | > 100 µM (inactive) | > 100 µM (inactive) | > 100 µM (inactive) | > 100 µM (inactive) | > 100 µM (inactive) | > 100 µM (inactive) | > 100 µM (inactive) | > 100 µM (inactive) | > 100 µM (inactive) | > 100 µM (inactive) | > 100 µM (inactive) | > 100 µM (inactive) | > 100 µM (inactive) | > 100 µM (inactive) | > 100 µM (inactive) |
| COc1ccccc1-c1cc(=O)c2ccccc2n1C1CC1 | 3.99 µM (inactive) | – | 4.83 µM (inactive) | 0.0782 µM (active) | 4.43 µM (inactive) | 2.37 µM (inactive) | 3.89 µM (inactive) | 4.4 µM (inactive) | 1.98 µM (inactive) | 1.75 µM (inactive) | 4.15 µM (inactive) | 5.01 µM (inactive) | 2 µM (inactive) | 4.6 µM (inactive) | 2.69 µM (inactive) | 5.08 µM (inactive) | – | 2.37 µM (inactive) | 3.54 µM (inactive) | – |
| COC1=CC(=O)C2=C(C1=O)[C@H]1CC[C@]3(C)[C@@H](OC(C)=O)CC[C@H]3[C@@H]1CC2 | 55.6 µM (inactive) | > 100 µM (inactive) | 25.4 µM (inactive) | 20.8 µM (inactive) | 25.2 µM (inactive) | 60.3 µM (inactive) | 15.1 µM (inactive) | > 100 µM (inactive) | – | > 100 µM (inactive) | 39.9 µM (inactive) | 42.1 µM (inactive) | 92.3 µM (inactive) | 75.3 µM (inactive) | 37.5 µM (inactive) | 95.9 µM (inactive) | > 100 µM (inactive) | 23.2 µM (inactive) | 30.3 µM (inactive) | – |
| COc1cc(S(=O)(=O)Nc2ccc(-c3csc(N4C(=O)C(C)SC4c4ccccc4)n3)cc2)ccc1Cl (stereo not drawn) | 20 µM (inactive) | 58.6 µM (inactive) | 40 µM (inactive) | 11.8 µM (inactive) | 17.5 µM (inactive) | 0.082 µM (active) | 10.1 µM (inactive) | > 100 µM (inactive) | 17.9 µM (inactive) | > 100 µM (inactive) | 19.9 µM (inactive) | 19.7 µM (inactive) | – | 13.4 µM (inactive) | 0.979 µM (active) | 94.2 µM (inactive) | 0.0555 µM (active) | 15.2 µM (inactive) | – | – |
| Nc1ccccc1OCc1cc(=O)c(OCc2ccccc2)co1 | 23.8 µM (inactive) | – | > 100 µM (inactive) | 5.05 µM (inactive) | – | 6.47 µM (inactive) | 27.7 µM (inactive) | 17.7 µM (inactive) | 14.7 µM (inactive) | 22.9 µM (inactive) | 34.4 µM (inactive) | 15.9 µM (inactive) | 10.1 µM (inactive) | 21.6 µM (inactive) | – | 0.214 µM (active) | – | 24.2 µM (inactive) | 28.4 µM (inactive) | – |
